What was measured:
Ebp, Dhcr7, and Dhcr24 = assay: cellular levels of sterols that mark inhibition of Ebp, Dhcr7, Dhcr24; format: cell-based; settings: for cellular 8,9-dehydrocholesterol (8,9-DHC) levels: marker of EBP inhibition
From the text: Inhibition of these sterol biosynthetic enzymes might provide an explanation for our observation that Ro-48-8071 has a blunted increase in EPC following LSS inhibition. […] Consistent with the proteomics data, Ro 48-8071 and TASIN-30, but not 1, displaced TASIN-2 (band migrating at approximately 20 kDa).
Consistent with inhibition, the cellular levels of 7-dehydrodesmosterol, a Dhcr7 substrate, accumulated following treatment with Ro 48-8071 but not 1.

Dhcr7 = assay: displacement of Dhcr7-specific probe; format: binding, mouse
Mut6 cells [1] = assay: rescue of toxicity by exogenous lanosterol or cholesterol in Mut6 cells; format: cell-based, murine
From the text: Taken together, we concluded that the levels of EPC resulting from 1 treatment are sufficient to downregulate SREBP target genes, upregulate LXR target genes, and block cell proliferation. Through its coordinated action on the critical transcriptional regulators of cholesterol homeostasis, LXRs and SREBPs, EPC can cause lethal reductions in cellular cholesterol levels. To test this hypothesis, we evaluated cell proliferation following treatment with increasing doses of either S-EPL or 1 in the presence of exogenous lanosterol or cholesterol conjugated to methyl beta-cyclodextrin (MCD), which aids sterol solubility and delivery. Supplementing cells with either lanosterol or cholesterol rescued Mut6 cells from the toxic effects of either S-EPL or 1. These observations provide evidence that the anti-proliferative activity of 1 is due to the production of EPC and the resulting depletion of cellular cholesterol.
This latter observation raised the hypothesis that Ro 48-8071 inhibited one or more enzymes downstream of LSS thereby blunting EPC synthesis. To evaluate whether Ro 48-8071 inhibits the synthesis of EPC downstream of EPL, we cultured cells with isotopically labeled EPL (d6-EPL) and measured d6-EPC production following compound treatment. Ro 48-8071 inhibited the production of d6-EPC while 1 had no effect on d6-EPC production. […]

Mut6 cells [2] = assay: Mut6 cell survival / anti-proliferative activity; format: cell-based, murine; settings: read-out: IC50, viability / anti-proliferative activity in Mut6
Mut6 cells [3] = assay: rescue of toxicity by co-treatment with SQLE inhibitor NB-598 in Mut6 cells; format: cell-based, murine; settings: co-treatment with NB-598
From the text: To assess whether EPC was necessary for MM0299 activity, we considered pharmacologic tools that could selectively block the shunt pathway. In the context of LSS inhibition, the production of DOS requires two cycles of oxidation by squalene epoxidase (SQLE), whereas OS only requires one. Therefore, we reasoned that co-administration of an SQLE inhibitor might have a greater effect on DOS levels and impede flux through the shunt pathway. […] Taken together, we concluded that NB-598 is a pharmacologic tool to selectively block the shunt pathway and assess the requirement for EPC for MM0299 activity. […] These observations are consistent with the hypothesis that inhibition of LSS and the consequent increase in EPC are responsible for toxicity at low nanomolar range. We noted that 1 remained toxic to Mut6 cells at higher concentrations despite the addition of NB-598. Toxicity at these concentrations, which are not likely to be pharmacologically achievable, is unlikely to be a consequence of EPC production, and more likely to be the result of sterol depletion through direct inhibition of cholesterol biosynthesis.
As a consequence, even though Ro-48-8071 inhibits LSS, its anti-proliferative effects are more likely to be multifactorial. To evaluate the contribution of EPC for Ro 48-8071-induced toxicity, we co-incubated Ro 48-8071 with increasing concentrations of NB-598.

[4] = test system: enzymes downstream of LSS; assay: d6-EPC production from isotopically labeled EPL (d6-EPL) in cells; format: cell-based
From the text: This latter observation raised the hypothesis that Ro 48-8071 inhibited one or more enzymes downstream of LSS thereby blunting EPC synthesis. To evaluate whether Ro 48-8071 inhibits the synthesis of EPC downstream of EPL, we cultured cells with isotopically labeled EPL (d6-EPL) and measured d6-EPC production following compound treatment. Ro 48-8071 inhibited the production of d6-EPC while 1 had no effect on d6-EPC production. […] For small molecules that inhibit enzymes downstream of LSS, our prediction is that lanosterol would not be efficiently converted to cholesterol and therefore would not rescue toxicity as effectively as cholesterol. […] By comparison, exogenous lanosterol and cholesterol provided a complete and equivalent degree of rescue in cells treated with 1.

Lss = assay: quantification of canonical and shunt pathway sterol intermediates in Mut6 cells; format: cell-based, mouse
From the text: Inhibitors of LSS block the canonical cholesterol biosynthetic pathway (referred to as the Bloch and Kandutsch-Russell pathways) and concomitantly stimulate the production of 24(S),25-epoxycholesterol (EPC) through a “shunt” pathway (Mark et al., 1996; Morand et al., 1997). For sterol synthesis, squalene, a symmetric polyene hydrocarbon intermediate in the cholesterol biosynthetic pathway, is oxidized by squalene epoxidase (SQLE) in the presence of NADPH and oxygen to generate (S)-2,3-oxidosqualene (OS), which in turn is converted by LSS into lanosterol. LSS inhibition shunts OS back to SQLE, which catalyzes a second oxidation event yielding the C2-symmetric (S,S)-2,3:22,23-dioxidosqualene (DOS). DOS is a preferred substrate for LSS and, even in the presence of an LSS inhibitor, DOS is converted by LSS into 24(S),25-epoxylanosterol (EPL) (Boutaud et al., 1992). EPL is further converted into EPC by the same enzymes that convert lanosterol into cholesterol (Nelson et al., 1981a; Nelson et al., 1981b). The overall consequence of LSS inhibition is reduced levels of canonical pathway intermediates and increased levels of shunt pathway intermediates. […] We considered that the decrease in EPC at higher concentrations might be the result of complete inhibition of LSS; however, the levels of DOS and EPL continued to increase at doses where EPC was decreasing. […] Pertinent to this hypothesis, in astrocytes, EPC stimulates the expression of sterol transporters including ABCA1 and is itself readily effluxed (Wong et al., 2007). We hypothesize that a threshold level of EPC, reached at higher concentrations of 1, activates transporter expression, leading to EPC efflux and the observed decrease in EPC levels. Taken together, we conclude that inhibition of Lss by MM0299 (1) leads to a dose-dependent decrease in canonical intermediates and an increase in shunt pathway intermediates.
To better gauge the role of EPC in the anti-cancer activity of 1, we sought to determine whether the levels of EPC achieved in cells treated with 1 are sufficient for toxicity.

UTSW71 = assay: rescue of toxicity by NB-598 in UTSW71; format: cell-based, human; settings: lower doses of NB-598
Description: Like Mut6 cells, both UTSW63 and UTSW71 grow as neurospheres in serum-free medium (data not shown). […] MM0299 toxicity in the two human GSC lines is completely rescued by exogenous MCD-conjugated lanosterol or cholesterol. A naturally occurring mechanism for the import of extracellular cholesterol is the uptake of circulating low-density lipoprotein (LDL). Therefore, we investigated whether human LDL could rescue MM0299 toxicity in human GBM cells. Addition of 20 μg/ml human LDL completely rescued the toxicity of 1 in both UTSW63 and UTSW71 cells. To investigate the role of the shunt pathway in MM0299 toxicity, we again turned to the tool compound NB-598.

Compound	cellular levels of 7-dehydrodesmosterol (Ebp, Dhcr7, and Dhcr24; Dhcr7 substrate)	accumulation of desmosterol (Ebp, Dhcr7, and Dhcr24; marker of Dhcr24 inhibition, high doses)	cellular 8,9-dehydrocholesterol (8,9-DHC) levels (Ebp, Dhcr7, and Dhcr24)	displacement of Dhcr7-probe (crosslinked Dhcr7 band) (Dhcr7)	increase in the IC50 with exogenous cholesterol (Mut6 cells [1]) [fold]	increase in the IC50 with exogenous lanosterol (Mut6 cells [1]) [fold]	IC50 (Mut6 cells [2]) [nM]	increase in the IC50 with NB-598 (Mut6 cells [3]) [fold]	effect on d6-EPC production from d6-EPL [4]	peak levels of EPC relative to those after 1 treatment (Lss) [%]	increase in IC50 with NB-598, UTSW71 (UTSW71) [fold]	increase of EPC at peak (Lss; 0.1 μM compound 1) [fold]	peak level of EPC (Lss; 0.1 μM compound 1) [ng/mg protein]	EPC level after lethal dose (Lss; 1 at 0.1 μM) [ng EPC/mg protein]	IC50 (Lss; Mus musculus, read-out: IC50 of lanosterol decrease) [nM]	dose-dependent decrease in the product lanosterol (Lss; maximum)	dose-dependent increase in the primary LSS substrate OS (Lss; maximum)	increase in shunt pathway intermediate DOS (Lss; maximum)	increase in shunt pathway intermediate EPL (Lss; maximum) [fold]
C=CCN(C)CCCCCCOc1ccc(C(=O)c2ccc(Br)cc2)c(F)c1 [Ro 48-8071, reference compound]	accumulated	accumulation	accumulation	displaced	479.4	21.7	11.2	3.2	inhibited	62									
COc1ccc(C(=O)COc2ccc(N3C(=O)[C@@H]4[C@@H]5C=C[C@@H]([C@H]6C[C@@H]56)[C@@H]4C3=O)cc2)cc1 [compound 1, (3aR,4R,4aR,5aS,6S,6aS)-2-(4-(2-(4-Methoxyphenyl)-2-oxoethoxy)phenyl)-4,4a,5,5a,6,6a-hexahydro-4,6-ethenocyclopropa[f]isoindole-1,3(2H,3aH)-dione]			no effect	did not displace				11.8	no effect		21.9	13.9	390	342	45.5	up to 24.5 fold	up to 6.48 fold	up to 17.9 fold	≤ 25.6
